Molecules are shown by their SMILES.

Chain of Factor D (P00746 26-253): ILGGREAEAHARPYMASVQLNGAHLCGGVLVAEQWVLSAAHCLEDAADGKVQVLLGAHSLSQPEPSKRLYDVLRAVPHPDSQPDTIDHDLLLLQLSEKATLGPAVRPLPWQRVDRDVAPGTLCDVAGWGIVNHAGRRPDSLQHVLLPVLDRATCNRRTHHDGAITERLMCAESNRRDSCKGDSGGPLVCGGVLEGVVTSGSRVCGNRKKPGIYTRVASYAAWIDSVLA

This assay deals with Factor D (Homo sapiens, UniProt P00746). Nature of the assay: Factor D esterolytic assay. It counts as biochemical. The conditions noted are these: substrate Z-Lys-SBzl 1.29 mM, 100 mM HEPES, 500 mM NaCl, pH 7.5, 10% DMSO, tested a minimum of three times. As to the method:
The IC50 value of a compound (i.e., the concentration of the compound that inhibits 50% of the enzymatic activity) was calculated according to the procedure reported in U.S. Pat. No. 6,653,340 B1, e.g., column 74 (incorporated by reference).
Specifically, the compounds were dissolved in a stock solution of DMSO at 10.0 or 100 mM. A portion of this stock solution was added to assay buffer in a final volume of 50 μL. Controls included buffer alone and enzyme solutions to which DMSO was added. Substrate was added to the reaction wells immediately or after incubation at room temperature. The reaction rates were measured spectrophotometrically by the generation of product at 405 nm for 600 sec. Background absorbance at 690 nm was measured and subtracted from the absorbance at 405 nm for each well.
The reaction rate for enzyme alone was compared to the rate of enzyme in the presence of inhibitor and the percent inhibition was calculated as shown below: […]
An established esterolytic assay for the measurement of Factor D activity and inhibition of Factor D activity was used (Kam, C. M.; McRae, B. J.; Harper, J. W.; Niemann, M. A.; Volanakis, J. E.; Powers, J. C. Human complement proteins D, C2, and B Active site mapping with peptide thioester substrates. J Biol. Chem. 1987, 262, 3444-3451). For this assay Z-Lys-SBzl, 1.29 mM (Kim, S.; Narayana, S. V. L; Volanakis, J. E. Mutational analysis of the substrate binding site of human complement Factor D. Biochemistry. 1994, 33, 14393-14399.) was used as the substrate for Factor D ([…]). Hydrolysis of this compound by Factor D liberated a free sulfhydryl group which is then reacted with 5,5′-dithiobis(2nitrobenzoic acid) producing an intense yellow color (Habeeb, A. F. S. A. Reaction of protein sulfhydryl groups with Ellman's Reagent. Methods in Enzymol. 1976, 25, 457-464). The assays were performed in 96 well microtiter plates and rates of hydrolysis were monitored at 405 nm on a Biotek Synergy H1 plate reader. Hydrolysis rates were reported as change in mOD/min. The assay was conducted in 100 mM HEPES, 500 mM NaCl, pH 7.5 containing 10% DMSO in a final volume of 50 μL per well.
An IC50, a compound concentration which inhibits 50% of the enzymatic activity, was calculated. Compounds in the examples were tested a minimum of three times.
For `NCc1cccc(-c2cc(COc3cc(CNP(=O)(OCc4ccccc4)OCc4ccccc4)ccc3CC(=O)O)cc3ccoc23)c1` [Compound 34c, 2-(2-((7-(3-(aminomethyl)phenyl)benzofuran-5-yl)methoxy)-4-((bis(benzyloxy)phosphorylamino)methyl)phenyl)acetic acid], the IC50 (commonly the midpoint of a concentration-inhibition curve) was below 1 µM.

Consider `NCc1cccc(-c2cc(C(Oc3ccccc3CC(=O)O)C(=O)O)cc3ccoc23)c1` (stereo not drawn) [Compound 35e, 2-(7-(3-(aminomethyl)phenyl)benzofuran-5-yl)-2-(2-(carboxymethyl)phenoxy)acetic acid], for which the IC50 is below 1 µM.

For the molecule `O=CNCc1nccc(-c2cc(COc3ccccc3CC(=O)O)cc3ccoc23)c1F` [Compound 36f, 2-(2-((7-(3-fluoro-2-(formamidomethyl)pyridin-4-yl)benzofuran-5-yl)methoxy)phenyl)acetic acid], the IC50 is below 1 µM.

`CCNCc1nccc(-c2cc(COc3ccccc3CC(=O)O)cc3ccoc23)c1F` [Compound 37d, 2-(2-((7-(2-((ethylamino)methyl)-3-fluoropyridin-4-yl)benzofuran-5-yl)methoxy)phenyl)acetic acid]: the IC50 was below 1 µM.

Regarding `CCC(C(=O)O)c1ccccc1OCc1cc(-c2ccnc(CN)c2F)c2occc2c1` (stereo not drawn) [Compound 38c, 2-(2-((7-(2-(aminomethyl)-3-fluoropyridin-4-yl)benzofuran-5-yl)methoxy)phenyl)butanoic acid], the IC50 was below 1 µM.

With `CC(C)(C)OC(=O)Cc1ccccc1OCc1cc(-c2ccnc(CN)c2F)c2occc2c1` [Compound 39e, tert-butyl 2-(2-((7-(2-(aminomethyl)-3-fluoropyridin-4-yl)benzofuran-5-yl)methoxy)phenyl)acetate], the IC50 is 1 to 10 µM.

Regarding `NCc1nccc(-c2cc(COc3ccccc3CC(=O)O)cc3c2OCC3)c1F` [Compound 40g, 2-(2-((7-(2-(aminomethyl)-3-fluoropyridin-4-yl)-2,3-dihydrobenzofuran-5-yl)methoxy)phenyl)acetic acid], the IC50 was below 1 µM.

For `NC(CC(F)(F)F)c1cccc(-c2cc(COc3ccccc3CC(=O)O)cc3ccoc23)c1` (stereo not drawn) [Compound 41e, 2-(2-((7-(3-(1-amino-3,3,3-trifluoropropyl)phenyl)benzofuran-5-yl)methoxy)phenyl)acetic acid], the IC50 lay within 1 to 10 µM.

Take `COc1ccc(CC(=O)O)c(OCc2cc(-c3cccc(CN)c3F)c3occc3c2F)c1` [Compound 42e, 2-(2-((7-(3-(aminomethyl)-2-fluorophenyl)-4-fluorobenzofuran-5-yl)methoxy)-4-methoxyphenyl)acetic acid]: the IC50 was below 1 µM.

Consider `COc1ccc(CC(=O)O)c(OCc2cc(-c3ccnc(CN)c3)c3occc3c2F)c1` [Compound 43d, 2-(2-((7-(2-(aminomethyl)pyridin-4-yl)-4-fluorobenzofuran-5-yl)methoxy)-4-methoxyphenyl)acetic acid], for which the IC50 is below 1 µM.

Consider `NCc1cccc(-c2cc(COc3ccccc3CC(=O)O)cc3c(F)coc23)c1` [Compound 44d, 2-(2-((7-(3-(aminomethyl)phenyl)-3-fluorobenzofuran-5-yl)methoxy)phenyl)acetic acid], for which the IC50 was below 1 µM.

As for `NCc1cccc(-c2cc(COc3ccccc3CC(=O)O)cc3c(F)coc23)c1F` [Compound 45b, 2-(2-((7-(3-(aminomethyl)-2-fluorophenyl)-3-fluorobenzofuran-5-yl)methoxy)phenyl)acetic acid], the 50% inhibitory concentration (IC50) was below 1 µM.

On to `NCc1nccc(-c2cc(COc3ccccc3CC(=O)O)cc3c(F)coc23)c1F` [Compound 46d, 2-(2-((7-(2-(aminomethyl)-3-fluoropyridin-4-yl)-3-fluorobenzofuran-5-yl)methoxy)phenyl)acetic acid], for which the IC50 was below 1 µM.

For the molecule `NCc1cc(-c2cc(COc3ccccc3CC(=O)O)cc3c(F)coc23)ccn1` [Compound 47c, 2-(2-((7-(2-(aminomethyl)pyridin-4-yl)-3-fluorobenzofuran-5-yl)methoxy)phenyl)acetic acid], the IC50 was below 1 µM.

For the molecule `CC(=O)c1ccc(CC(=O)O)c(OCc2cc(-c3cccc(CN)c3)c3occc3c2F)c1` [Compound 48g, 2-(4-acetyl-2-((7-(3-(aminomethyl)phenyl)-4-fluorobenzofuran-5-yl)methoxy)phenyl)acetic acid], the IC50 was below 1 µM.

As to `Cc1ccc(CC(=O)O)c(OCc2cc(-c3cccc(CN)c3)c3occ(F)c3c2)c1` [Compound 49d, 2-(2-((7-(3-(aminomethyl)phenyl)-3-fluorobenzofuran-5-yl)methoxy)-4-methylphenyl)acetic acid], the IC50 is below 1 µM.

Consider `NCc1cc(-c2cc(COc3ccccc3CC(=O)O)cc3ccoc23)co1` [Compound 50e, 2-(2-((7-(5-(aminomethyl)furan-3-yl)benzofuran-5-yl)methoxy)phenyl)acetic acid], for which the IC50 is above 10 µM.

Take `NCc1cccc(-c2cc(COc3cc(C(F)(F)F)ccc3CC(=O)O)cc3cc(F)oc23)c1` [Compound 53d, 2-(2-((7-(3-(aminomethyl)phenyl)-2-fluorobenzofuran-5-yl)methoxy)-4-(trifluoromethyl)phenyl)acetic acid]: the IC50 was below 1 µM.

With `NCc1nccc(-c2cc(COc3cc(C(F)(F)F)ccc3CC(=O)O)cc3ccoc23)c1F` [Compound 56f, 2-(2-((7-(2-(aminomethyl)-3-fluoropyridin-4-yl)benzofuran-5-yl)methoxy)-4-(trifluoromethyl)phenyl)acetic acid], the IC50 was below 1 µM.

On to `NCc1cc(-c2cc(COc3cc(C(F)(F)F)ccc3CC(=O)O)cc3ccoc23)ccn1` [Compound 57b, 2-(2-((7-(2-(aminomethyl)pyridin-4-yl)benzofuran-5-yl)methoxy)-4-(trifluoromethyl)phenyl)acetic acid], for which the IC50 was below 1 µM.

Regarding `NCc1cccc(-c2cc(COc3cc(C(F)(F)F)ccc3CC(=O)O)cc3ccoc23)c1F` [Compound 58b, 2-(2-((7-(3-(aminomethyl)-2-fluorophenyl)benzofuran-5-yl)methoxy)-4-(trifluoromethyl)phenyl)acetic acid], the IC50 was below 1 µM.

As for `CCc1ccc(CC(=O)O)c(OCc2cc(-c3ccnc(CN)c3F)c3oc(F)cc3c2)c1` [Compound 59i, 2-(2-((7-(2-(aminomethyl)-3-fluoropyridin-4-yl)-2-fluorobenzofuran-5-yl)methoxy)-4-ethylphenyl)acetic acid], the IC50 was below 1 µM.

For the molecule `NCc1cccc(-c2cc(C(CC(=O)O)Oc3ccccc3CC(=O)O)cc3ccoc23)c1` (stereo not drawn) [Compound 62g, 3-(7-(3-(aminomethyl)phenyl)benzofuran-5-yl)-3-(2-(carboxymethyl)phenoxy)propanoic acid], the IC50 is below 1 µM.

As to `NCc1ccn(-c2cc(COc3ccccc3CC(=O)O)cc3ccoc23)c1` [Compound 63f, 2-(2-((7-(3-(aminomethyl)-1H-pyrrol-1-yl)benzofuran-5-yl)methoxy)phenyl)acetic acid], the IC50 fell in the range of 1 to 10 µM.

With `CC(=O)c1ccc(CC(=O)O)c(OCc2cc(-c3cccc(CN)c3)c3oc(F)cc3c2)c1` [Compound 64h, 2-(4-acetyl-2-((7-(3-(aminomethyl)phenyl)-2-fluorobenzofuran-5-yl)methoxy)phenyl)acetic acid], the IC50 is below 1 µM.

In the case of `NCc1cccc(-c2cc(COc3ccccc3CC(=O)O)c(OCC(=O)O)c3ccoc23)c1` [Compound 65g, lithium 2-((7-(3-(aminomethyl)phenyl)-5-((2-(carboxymethyl)phenoxy)methyl)benzofuran-4-yl)oxy)acetate], the IC50 was below 1 µM.

For `CC(C)Oc1c(COc2ccccc2CC(=O)O)cc(-c2cccc(CN)c2)c2occc12` [Compound 66f, 2-(2-((7-(3-(aminomethyl)phenyl)-4-isopropoxybenzofuran-5-yl)methoxy)phenyl)acetic acid], the IC50 was below 1 µM.

For the molecule `COc1c(COc2ccccc2CC(=O)O)cc(-c2cccc(CN)c2)c2occc12` [Compound 67f, 2-(2-((7-(3-(aminomethyl)phenyl)-4-methoxybenzofuran-5-yl)methoxy)phenyl)acetic acid], the IC50 is below 1 µM.

Take `NCc1cccc(-c2cc(COc3ccccc3CC(=O)O)c(C3CC3)c3ccoc23)c1` [Compound 68g, 2-(2-((7-(3-(aminomethyl)phenyl)-4-cyclopropylbenzofuran-5-yl)methoxy)phenyl)acetic acid]: the half-inhibitory concentration (IC50) is below 1 µM.

Regarding `NCc1cccc(-c2cc(COc3ccccc3CC(=O)O)c(OCC3CCCO3)c3ccoc23)c1` (stereo not drawn) [Compound 69g, 2-(2-((7-(3-(aminomethyl)phenyl)-4-((tetrahydrofuran-2-yl)methoxy)benzofuran-5-yl)methoxy)phenyl)acetic acid], the IC50 is below 1 µM.

For the origin of these results see US20250275991A1, “ORAL COMPLEMENT FACTOR D INHIBITORS” (BioCryst Pharmaceuticals, Inc, priority 2019, published 2025).
